# Test system: in vitro differentiated human CCR9+α4β7+ T cells
# Experiment: Static binding (adhesion) assay of in vitro differentiated T cells on MAdCAM-1-Fc coated plates
# Assay type: cell-based
# Conditions: 1 μM CCX507, with hCCL25, MAdCAM-1-Fc coated plates, FIG. 1B
# Procedure: Adhesion assays were performed as follows. Human lymphocytes were isolated from total PBMCs and activated with α-CD3ε/α-CD28 (1 μg/mL; R&D Systems) in the presence of 1 μM retinoic acid (Sigma) and 1 ng/mL human IL12 (R&D Systems). In vitro activated T cells were further expanded for 5 days in the presence of 1 μM retinoic acid (RA) and 1 ng/mL human IL12. The expanded cells were stained with an anti CCR9 APC conjugated antibody (Cat. No. 248621; R&D Systems) and a conjugated anti-α4β7 integrin antibody (Act-1). The stained cells were analyzed by flow cytometry. Expression of CCR9 and α4β7 integrin in the expanded T cells was depicted as a 2-parameter scatterplot in FIG. 1A.
# In vitro activated T cells were added to 96-well plate coated overnight with 0.3 μg/mL MAdCAM-1-Fc fusion protein (R&D Systems) in the presence of the following conditions: DMSO only, 500 ng human CCL25 (hCCL25; a CCR9 ligand) only, 1 μM CCX507 (a CCR9 small molecule inhibitor) only, or 500 ng hCCL25 and 1 μM CCX507. Adherent cells were quantified using CyQUANT® Cell Proliferation Assays (Thermo Fisher).
structure (smiles),measurement,value
Cc1cc(NS(=O)(=O)c2ccc(C(C)(C)C)c(F)c2)n(-c2ccc(N)c3ncccc23)n1 [CCX507],"binding of RA-differentiated human T cells to MAdCAM-1 (adherent cells quantified using CyQUANT, RFU)",limits the binding of RA-differentiated human T cells to MAdCAM-1

# Reference: patent US11020394B2, “Compositions and methods for treating inflammatory bowel disease using a combination therapy of small molecule inhibitors of C—C chemokine receptor type 9 (CCR9) and anti-α4β7 integrin blocking antibodies” (ChemoCentryx, Inc., priority 2014, dated 2021)
